# Test results reported in US6936622B2, “6-phenylbenzonaphthyridines” (Altana Pharma AG, priority 2001, dated 2005).
# Structures can show the parent of a compound that is named as a salt.
# How the values were obtained:
# PDE4 (cAMP-specific) = assay: Inhibition of PDE isoenzymes: PDE4; type: biochemical; settings: cytosol of human polymorphonuclear leukocytes (PMNL), cAMP as substrate, motapizone 1 μM
# Protocol: (§1) 1. Inhibition of PDE Isoenzymes
# (§2) The PDE activity was determined according to Thompson et al. (Adv Cycl Nucl Res 10: 69-92, 1979) with some modifications (Bauer and Schwabe, Naunyn-Schmiedeberg's Arch Pharmacol 311: 193198, 1980). The test samples contained 20 mM Tris (pH 7.4), 5 mM MgCl2, 0.5 μM cAMP or cGMP, [^3H]cAMP or [^3H]cGMP (about 30 000 cpm/sample), the PDE isoenzyme-specific additives described in greater detail below, the indicated concentrations of inhibitor and an aliquot of the enzyme solution in a total sample volume of 200 μl. Dilution series of the compounds according to the invention were prepared in DMSO and further diluted in the samples [1:100 (v/v)], to give the desired end concentration of the inhibitors at a DMSO concentration of 1% (v/v), which for its part has only a minute effect on PDE activity.
# (§3) After preincubation at 37° C. for 5 minutes, the reaction was started by addition of the substrate (cAMP or cGMP). The samples were incubated at 37° C. for a further 15 min. The reaction was terminated by addition of 50 μl 0.2 N HCl. After cooling on ice for 10 minutes and addition of 25 μg 5′-nucleotidase (snake venom from Crotalus atrox), the mixture was again incubated at 37° C. for 10 min and the samples were then applied to QAE Sephadex A-25 columns (sample volume 1 ml). The columns were eluted with 2 ml of 30 mM ammonium formate (pH 6.0). The radioactivity of the eluate was measured and corrected by the corresponding blank values (measured in the presence of denatured protein); the blank values were less than 5% of the total radioactivity. In no case did the proportion of hydrolyzed nucleotide exceed 30% of the original substrate concentration.
# PDE4 (cAMP-specific) was investigated in the cytosol of human polymorphonuclear leukocytes (PMNL) [isolated from leukocyte concentrates, see Schudt et al., Arch Pharmacol 1991: 344, 682-690] using cAMP as substrate. The PDE3 inhibitor motapizone (1 μM) was used to suppress the PDE3 activity emanating from contaminated platelets.
# (§4) The IC50 values were determined from the concentration-inhibition curves by nonlinear regression.
# PDE3 (cGMP-inhibited) = target: T1, PDE3 (cGMP-inhibited) (Homo sapiens, UniProt Q14432); assay: Inhibition of PDE isoenzymes: PDE3; type: biochemical; settings: homogenates of human platelets, cAMP or cGMP as substrate; read-out: PDE3 [-log IC50, mol/l] (converted)
# T1 construct: investigated in homogenates of human platelets; from tissue; host or cells: homogenates of human platelets
# T1 sequence (Q14432 whole entry): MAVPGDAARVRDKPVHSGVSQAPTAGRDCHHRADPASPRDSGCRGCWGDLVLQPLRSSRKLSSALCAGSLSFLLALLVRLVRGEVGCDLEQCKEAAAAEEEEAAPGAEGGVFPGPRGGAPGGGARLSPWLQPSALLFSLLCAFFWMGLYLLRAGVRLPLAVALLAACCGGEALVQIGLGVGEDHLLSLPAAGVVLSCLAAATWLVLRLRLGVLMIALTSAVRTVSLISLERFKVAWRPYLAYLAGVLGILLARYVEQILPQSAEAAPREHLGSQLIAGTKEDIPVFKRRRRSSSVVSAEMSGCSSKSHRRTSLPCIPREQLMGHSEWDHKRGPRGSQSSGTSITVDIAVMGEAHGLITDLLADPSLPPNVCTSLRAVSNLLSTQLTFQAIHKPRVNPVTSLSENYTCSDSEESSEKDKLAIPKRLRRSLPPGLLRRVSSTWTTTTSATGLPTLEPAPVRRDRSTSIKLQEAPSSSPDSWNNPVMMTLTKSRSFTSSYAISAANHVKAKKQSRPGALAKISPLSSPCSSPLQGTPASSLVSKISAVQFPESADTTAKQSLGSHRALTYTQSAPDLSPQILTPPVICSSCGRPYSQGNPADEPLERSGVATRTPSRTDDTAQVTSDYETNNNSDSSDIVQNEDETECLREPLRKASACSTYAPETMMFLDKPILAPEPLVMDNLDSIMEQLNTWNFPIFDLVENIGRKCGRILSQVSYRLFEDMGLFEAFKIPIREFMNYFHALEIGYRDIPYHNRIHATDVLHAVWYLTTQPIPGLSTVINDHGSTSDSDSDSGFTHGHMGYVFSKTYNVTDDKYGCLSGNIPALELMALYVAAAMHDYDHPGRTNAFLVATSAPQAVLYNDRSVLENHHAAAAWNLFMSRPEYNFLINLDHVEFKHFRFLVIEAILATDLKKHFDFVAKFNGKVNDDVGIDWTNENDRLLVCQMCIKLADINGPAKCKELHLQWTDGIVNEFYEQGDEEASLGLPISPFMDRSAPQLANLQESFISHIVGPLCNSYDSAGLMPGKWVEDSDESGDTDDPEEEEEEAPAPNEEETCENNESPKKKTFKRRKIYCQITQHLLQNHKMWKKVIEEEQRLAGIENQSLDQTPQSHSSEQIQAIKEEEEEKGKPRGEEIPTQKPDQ
# Protocol: as §1, §2, §3
# PDE3 (cGMP-inhibited) was investigated in homogenates of human platelets (see Schudt et al., Biochem Pharmacol 1991: 42, 153-162) using cAMP or cGMP as substrate.
# as §4
Structure (SMILES),melting point,"PDE4 [-log IC50, mol/l] (PDE4 (cAMP-specific))",IC50 (PDE3 (cGMP-inhibited))
"CCOc1cc2c(cc1OC)C(c1ccc(C(=O)N=C(N)N3CCN(C)CC3)cc1)=NC1CCN(C)CC21 (stereo not drawn) (as salt: hydrochloride) [Compound 6, N-[1-Amino-1-(4-methylpiperazin-1-yl)methylene]-4-((+)-cis-9-ethoxy-8-methoxy-2-methyl-1,2,3,4,4a,10b-hexahydro[c][1,6]naphthyridin-6-yl)benzamide dihydrochloride]",209 to 215 °C,,
"CCOc1cc2c(cc1OC)C(c1ccc(C(=O)NC(=N)N3CCCC3)cc1)=N[C@H]1CCN(C)C[C@@H]21 (relative stereo) [Compound 11, 4-((cis)-9-Ethoxy-8-methoxy-2-methyl-1,2,3,4,4a,10b-hexahydro-benzo[c][1,6]naphthyridin-6-yl)-N-(1-imino-1-pyrrolidin-1-yl-methyl)-benzamide]",145 to 152 °C,8.41,0.55 µM
"CCOc1cc2c(cc1OC)C(c1ccc(C(=O)NC(=NC)N(C)C)cc1)=N[C@H]1CCN(C)C[C@@H]21.Cl (relative stereo) [Compound 13, N′-{1-[4-((cis)-9-Ethoxy-8-methoxy-2-methyl-1,2,3,4,4a,10b-hexahydro-benzo[c][1,6]naphthyridin-6-yl)-phenyl]-methanoyl}-N,N,N″-trimethyl-guanidine hydrochloride]",143 to 150 °C,9.34,0.0912 µM
"CCOc1cc2c(cc1OC)C(c1ccc(C(=O)N=C(N(C)C)N(C)C)cc1)=NC1CCN(C)CC21 (single isomer, unassigned) (as salt: hydrochloride) [Compound 5, N″{1-[4-((−)-cis-9-Ethoxy-8-methoxy-2-methyl-1,2,3,4,4a,10b-hexahydro[c][1.6]naphthyridin-6-yl)phenyl]methanoyl}-N,N,N′,N′-tetramethylguanidine hydrochloride]",169 to 175 °C,,
"CCOc1cc2c(cc1OC)C(c1ccc(C(=O)NC(=N)N(C)C)cc1)=NC1CC[N+](C)([O-])CC21 (single isomer, unassigned) [Compound 22, N′-{1-[4-((−)-cis-9-Ethoxy-8-methoxy-2-methyl-2-oxy-1,2,3,4,4a,10b-hexahydro-benzo[c][1,6]naphthyridin-6-yl)-phenyl]-methanoyl}-N,N-dimethyl-guanidine]",220 to 224 °C,7.71,0.676 µM
"CCOc1cc2c(cc1OC)C(c1cccc(C(=O)NC(=N)N(C)C)c1)=NC1CCN(C)CC21 (stereo not drawn) [Compound 10, N′-{1-[3-(cis)-9-Ethoxy-8-methoxy-2-methyl-1,2,3,4,4a,10b-hexahydro-benzo[c][c][1,6]naphthyridin-6-yl)-phenyl]-methanoyl}-N,N-dimethyl-guanidine]",186 to 188 °C,8.15,0.891 µM
